Patent US20120029047A1, “USE OF HDAC INHIBITORS FOR THE TREATMENT OF BONE DESTRUCTION” (priority 2007, published 2012)

What was measured:
MM1S cells [1] = test: Time to clinical endpoint in MM1S model (Study #0942); format: in vivo, SCID-beige mice; conditions: for Median Time to Clinical Endpoint: endpoint = clinical score of 3
Protocol: Female SCID-beige mice were injected with MM1S cells (2×10^6) intravenously (iv) into the tail vein on Day 0. Treatment was initiated on Day 10 when the average tumor burden, as determined by bioluminescence, reached approximately 8.0×10^5-1.0×10^6 photons per second. All treatment groups consisted of 8 animals. […] Tumor burden and body weights were recorded once a week during the active dosing period. In vivo micro-computed tomography (microCT) images were acquired in live animals on day 32 and 33 (Study #1) or Day 34 and 35 (Study #2). In the second study, animals were individually monitored until achievement of clinical endpoint. […] Each animal was monitored daily for progression of signs of disease progression, including mobility and general health. Animals were scored on a clinical scale from 0-4. […] These animals were removed from analysis due to treatment related deaths. […] The median time to endpoint for the vehicle treated animals was 37 days.

MM1S tumor bearing mice [2] = test: In vivo microCT analysis of tibial trabecular bone density; set-up: species or system SCID-beige mice; conditions: for increase in median trabecular bone density: after 4 weeks of treatment
From the text: (§1) Animals were anesthetized with 2% isoflurane mixed with oxygen (2 L/min.) and then placed in a mouse holder (custom made, Peter Ingold, NIBR Basel) specifically designed to align both tibiae and mounted into an in vivo high resolution microCT scanner (VivaCT40, Scanco, Switzerland). To insure correct positioning of the mouse, a scout view of bilateral tibia bones and knee joints was taken and the region of interest (ROI, 2.23 mm in length) was positioned to start at the growth plate extending distally over the area of the trabecular bone (FIG. 3). The scanner was set to a nominal isotropic voxel size of 21 μm, referred to as medium/standard resolution. The X-ray tube was operated at 55 kVp and 145 mA with a focal spot size of 5 μm. Five hundred projection images were acquired per scan with an integration time of 180 ms. Tomographic images were reconstructed on a VMS cluster (HP Alpha, HP, Palo Alto, USA) in 1024×1024 pixel matrices using a conebeam back projection procedure resulting in 315 axial slices.
(§2) For determination of trabecular and cortical bone features, a 2.23 mm region of interest was placed to start at the growth plate extending distally. 106 axial slices were obtained using a μ-CT VivaCT40Scanner (SCANCO, Switzerland) with 55 kv, 145 mA, 180 ms integration time and 21 μm resolution. Trabecular bone density (BV/TV) was measured in a 0.735 mm region of a tibia (9 slices proximal and 25 slices distal from the tibial tuberosity) using SCANCO software (SCANCO, Switzerland) with a threshold of 275 is used to define calcified bone volume (BV). Cortical bone density (BV/TV) was measured in a 1.5 mm region of a tibia (15 slices proximal and 55 slices distal from the tibial tuberosity) using SCANCO software (SCANCO Switzerland) with a threshold of 275. Three-dimensional analysis was performed on the determined regions utilizing the SCANCO operational software. All treatment groups were scanned over the course of two days, with equal numbers of animals from each treatment group scanned each day.
FIG. 4 describes a […] region of interest was placed to start at the growth plate extending distally. 106 axial slices were obtained using a μ-CT VivaCT40Scanner (SCANCO, Switzerland) with 55 kv, […], 180 ms integration time and 21 μm resolution. Trabecular bone density, bone volume/total volume (BV/TV), was measured in a 0.735 mm region of a tibia (10 slices proximal and 25 slices distal from the tibial tuberosity) using SCANCO software (SCANCO, Switzerland) with a threshold of 275. Cortical bone density, bone volume/total volume (BV/TV), was measured in a 1.5 mm region of a tibia (15 slices proximal and 55 slices distal from the tibial tuberosity) using SCANCO software (SCANCO Switzerland) with a threshold of 275.

TRACP5B = test: Serum bio-marker TRACP5B ELISA (MouseTRAP Assay); format: in vivo, mouse
Protocol: A serum marker of bone metabolism, TRACP5B, was assessed for mouse serum changes. The MouseTRAP™ Assay kit is an ELISA assay (Cat#SB-TR103, IDS Fountain Hills, Ariz.). Briefly, polyclonal […] TRACP5B antibodies are incubated in 96 well plates coated with anti-rabbit IgG. This ELISA kit is specific for mouse TRACP5B only. This assay has a reported sensitivity of 0.1 U/L.
TRACP5B serum levels were evaluated as a measure of osteoclast activity. The level of a TRACP5B was analyzed in FIG. 7 and Table 12.

MM1S tumor bearing mice [3] = test: In vivo microCT analysis of tibial cortical bone density; set-up: species or system SCID-beige mice; conditions: Study #0879, 15 mg/kg, tibia
From the text: as §1, with “The X-ray tube was operated at 55 kVp and 145 mA with a focal spot size of 5 μm. Five hundred projection images were acquired per scan with an integration time of 180 ms. Tomographic images were reconstructed on a VMS cluster (HP Alpha, HP, Palo Alto, USA) in 1024×1024 pixel matrices using a conebeam back projection procedure resulting in 315 axial slices.” left out
as §2, with “106 axial slices were obtained using a μ-CT VivaCT40Scanner (SCANCO, Switzerland) with 55 kv, 145 mA, 180 ms integration time and 21 μm resolution.” left out, “All treatment groups were scanned over the course of two days, with equal numbers of animals from each treatment group scanned each day.” left out

MM1S cells [4] = test: MM1S disseminated multiple myeloma model, tumor burden by bioluminescence; format: in vivo, SCID-beige mice
Protocol: Female SCID-beige mice were injected with MM1S cells (2×10^6) intravenously (iv) into the tail vein on Day 0. Treatment was initiated on Day 10 when the average tumor burden, as determined by bioluminescence, reached approximately 8.0×10^5-1.0×10^6 photons per second. All treatment groups consisted of 8 animals. […] Tumor burden and body weights were recorded once a week during the active dosing period. In vivo micro-computed tomography (microCT) images were acquired in live animals on day 32 and 33 (Study #1) or Day 34 and 35 (Study #2). In the second study, animals were individually monitored until achievement of clinical endpoint. Treatments were started on Day 10 post-iv tail implantation (2.0 million cells/animal). […] Vehicle control (D5W) was administered ip times per week, for 3 weeks. Initial group size: 8 animals. Final efficacy data and body weight change were calculated 72 hours post-last dose. Treatments were started on Day 10 post-iv tail implantation (2.0 million cells/animal). […] Vehicle control (D5W) was administered ip times per week, for 3 weeks. Initial group size: 8 animals. With respect to FIG. 2, treatments were started on Day 11 post-iv tail implantation (2.0 million cells/animal). NVP-LBH589-CU was administered ip, at 15 mg/kg (A), or 10 and 20 mg/kg (B), 5 times a week (qd×5/wk) for 4 weeks. Vehicle control (D5W) was administered ip 5 times a week (qd×5/wk), for 4 weeks. Bortezomib was administered iv, at 0.2 mg/kg, once per week (qwk) or 1 mg/kg, twice per week in Study #0879 for 4 weeks (biwk) (B). Initial group size: 8 animals. Final efficacy data are shown in the A panel for Study #0879 and B panel for Study #0942. Body weight changes were calculated on 24 hours post-last dose for each study (right panels).

[5] = Study #0879, 15 mg/kg IP qdx5, 31 days after implantation
[6] = Study #0942, 10 mg/kg IP qdx5, 35 days after implantation
[7] = Study #0942, 20 mg/kg IP qdx5, 35 days after implantation

Cc1[nH]c2ccccc2c1CCNCc1ccc(/C=C/C(=O)NO)cc1 [LBH589, N-hydroxy-3-[4-[[[2-(2-methyl-1H-indol-3-yl)-ethyl]-amino]methyl]phenyl]-2E-2-propenamide]
Median Time to Clinical Endpoint (MM1S cells [1]; Study #0942, 10 mg/kg): 54 days
animals without symptoms of disease 80 days after implant (MM1S cells [1]; Study #0942, 20 mg/kg): One of the remaining six
Median Time to Clinical Endpoint (MM1S cells [1]; Study #0942, 20 mg/kg): 61 days
increase in mean trabecular bone density (MM1S tumor bearing mice [2]; Study #0879, 15 mg/kg, after 3 weeks of treatment): 5.5 fold
Mean Trabecular Density (BV/TV) (MM1S tumor bearing mice [2]; Study #0879, 15 mg/kg, tibia): 14.48 % BV/TV
increase in median trabecular bone density (MM1S tumor bearing mice [2]; Study #0942, 10 mg/kg): 11.8 fold
Median Trabecular Density (BV/TV) (MM1S tumor bearing mice [2]; Study #0942, 10 mg/kg, tibia): 8.23 % BV/TV
increase in median trabecular bone density (MM1S tumor bearing mice [2]; Study #0942, 20 mg/kg): 19.1 fold
Median Trabecular Density (BV/TV) (MM1S tumor bearing mice [2]; Study #0942, 20 mg/kg, tibia): 12.89 % BV/TV
Mean TRACP5B Serum Levels (TRACP5B; Study #0879, 15 mg/kg): 7.1
decrease of serum levels of TRACP5B compared to vehicle (TRACP5B; Study #0879, LBH589 alone): 41%
Mean Cortical Density (BV/TV) (MM1S tumor bearing mice [3]): 98.3%
% Regression (MM1S cells [4]; [5]): None
% T/C (MM1S cells [4]; [5]): 22%
Delta Mean Tumor Burden (mean ± SEM) (MM1S cells [4]; [5]): 292.4E+6 ± 92.6E+6 photons/sec
reduction in tumor burden (MM1S cells [4]; Study #0879, 15 mg/kg qdX5, Day 31): ~78%
% Regression (MM1S cells [4]; [6]): None
% T/C (MM1S cells [4]; [6]): 31%
Delta Mean Tumor Burden (mean ± SEM) (MM1S cells [4]; [6]): 348.5E+6 ± 49.6E+6 photons/sec
reduction in tumor burden (MM1S cells [4]; Study #0942, 10 mg/kg qdX5, Day 35): ~79%
% Regression (MM1S cells [4]; [7]): None
% T/C (MM1S cells [4]; [7]): 9%
Delta Mean Tumor Burden (mean ± SEM) (MM1S cells [4]; [7]): 107.7E+6 ± 42.6E+6 photons/sec
reduction in tumor burden (MM1S cells [4]; Study #0942, 20 mg/kg qdX5, Day 35): ~91%
significance of reduction in tumor burden (MM1S cells [4]; both studies (#0879 and #0942)): statistically significant
